Measured values published in patent US4229471A, “N-(2-Ethylhexyl)-crotonamides” (The Lion Dentifrice Co., Ltd., priority 1978, dated 1980).

Experiments:
Acute toxicity test = settings: in vivo, ip; ICR male mouse, intraperitoneal
Mastocytoma P-815 = test: Ascites tumor (Mastocytoma P-815) inhibition in BDF1 mice; type: in vivo; settings: 0.5 mg/mouse/day × 6, intraperitoneal
Protocol: Mice of BDF1 species (5 week old male, suppliers: Charles River and Shizuoka Laboratory Animal Center) were divided into four groups each containing three to six. Cancerized mast cells (Mastocytoma P-815) were implanted into the ascites of a mouse in an amount of 1×10^6 cells/mouse. From the next day, drug
A: N-(2-ethylhexyl)-crotonamide,
B: N-(2-ethylhexyl)-beta-methylcrotonamide, or
C: N-(2-ethylhexyl)-beta-hydroxybutyramide
was administered once a day by intra-peritoneal injection in an amount of 0.5 mg/mouse/day for 6 days, respectively. After 18 hours from the last administration, the mice were killed with ether for anesthesia. The entire ascitic cells were taken out with about 20 ml of phosphate buffered saline. Using the nigrosine staining method (0.01% nigrosine in Earl's balanced salt solution), the number of cells, particularly, live cells were counted by means of a Thomas leucocyte counting apparatus.
For the above-described administration procedure was used 50 mg of the drug to which 25 mg of polyoxyethylene sorbitan monooleate (Tween 80) was added and the mixture was suspended in 5 ml of physiological salt solution and sterilized in an autoclave at 120° C. under 2 atm. for 15 minutes. The resulting sterile suspension was ready for administration.
**Tumor inhibition ratio was calculated in terms of the following
C : number of ascites cancer cells in the control group
N : number of ascites cancer cells in the treated group

cancerous cells = test: Carcinostatic activity (overall statement)
Solubility = type: physicochemical; settings: for solubility in organic solvents: organic solvents such as acetone
[1] = tested on: DNA synthesis in cancerized mast cells (Mastocytoma P-815); test: 3H-TdR incorporation into DNA of cancerized mast cells; type: cell-based, mouse; settings: for inhibition at 100 µg/mL / inhibition at 500 µg/mL: Mus musculus, P815, 1.25 h, read-out: DNA synthesis inhibition ratio
Protocol: Effects of drugs on ^3 H-TdR (tritium labelled thymidine) incorporation into DNA of cancerized mast cells were examined.
Cancerized mast cells (Mastocytoma P-815), 4.25×10^6 cells, were incubated for 15 minutes with or without each of drugs, A: (N-(2-ethylhexyl)-crotonamide), B: (N-(2-ethylhexyl)-β-methylcrotonamide) and C: (N-(2-ethylhexyl)-β-hydroxybutyramide) (each 100 μg and 500 μg) in 1 cc of Fischer culture medium. Thereafter, 0.1 μCi of ^3 H-TdR was added and incubation was proceeded for an additional 60 minutes. The cells were washed with PBS and the DNA was precipitated with 5% (W/V) trichloroacetic acid. Precipitates were counted in a liquid Scintillation Spectrometer.
*Inhibition ratio was calculated in terms of the following equation: […]
c : amount of ^3 H--TdR incorporated in the control group (cpm)
s : amount of ^3 H--TdR incorporated in the treated group (cpm)

[2] = tested on: cancerized mast cells (Mastocytoma P-815); test: Inhibition of growth of cancerized mast cells (Mastocytoma P-815) during 20 hours of cultivation; type: cell-based, mouse; settings: 20 hour cultivation, 37° C., FIG. 5
Protocol: 20 ml of a culture medium containing cancerized mast cells of a mouse (Mastocytoma P-815) at an inoculum cell concentration of 1.6×10^5 cells/ml in Fischer and Sartorelli's medium supplemented with 5% fetal calf serium were cultured in a 120 ml Erlenmeyer flask with or without drugs to be tested in an atmosphere of 5% CO2 and 95% air at 37° C. for 20 hours in a humidified incubator. Drugs, N-(2-ethylhexyl)-crotonamide, N-(2-ethylhexyl)-β-methylcrotonamide or N-(2-ethylhexyl)-β-hydroxybutyramide were added in different amounts to the initial culture medium. No drug was added to a control solution. After cultivation, the number of cells was counted.
The results are shown in FIG. 5 wherein A corresponds to N-(2-ethylhexyl)-crotonamide, B corresponds to N-(2-ethylhexyl)-beta-methylcrotonamide, C corresponds to N-(2-ethylhexyl)-beta-hydroxybutyramide, D is the inoculum cell number, and E corresponds to the control. A, B, C and E are the cell numbers after 20 hour cultivation as described above.

[3] = Shizuoka Laboratory Animal Center BDF1 mice

| Structure (SMILES) | LD50 (Acute toxicity test) [mg/kg] | Number of ascites cancer cells (Mastocytoma P-815; Charles River BDF1 mice) | Tumor inhibition ratio (Mastocytoma P-815; Charles River BDF1 mice) [%] | Number of ascites cancer cells (Mastocytoma P-815; [3]) | Tumor inhibition ratio (Mastocytoma P-815; [3]) [%] | carcinostatic activity (cancerous cells) | solubility in organic solvents (Solubility) | solubility in water (Solubility) | inhibition of DNA synthesis (in words) [1] | 3H-TdR incorporated (cpm) ([1]; 100 μg in 1 cc medium) | 3H-TdR incorporated (cpm) ([1]; 500 μg in 1 cc medium) | inhibition at 100 µg/mL ([1]; 100 μg in 1 cc medium) [%] | inhibition at 500 µg/mL ([1]; 500 μg in 1 cc medium) [%] | inhibition of division and growth of cancerized mast cells [2] |
| --- | --- | --- | --- | --- | --- | --- | --- | --- | --- | --- | --- | --- | --- | --- |
| CCCCC(CC)CNC(=O)C=C(C)C (stereo not drawn) [Drug B, N-(2-ethylhexyl)-β-methylcrotonamide] | 1400 | 9.5 ×10^8 /mouse | 42.1 | 4.0 ×10^8 /mouse | 58.8 | high carcinostatic activity | soluble in organic solvents such as acetone | insoluble in water | effective in inhibiting DNA synthesis | 200 | 0 | 95.1 | 100 | more effective than N-(2-ethylhexyl)-β-hydroxybutyramide |
| CCCCC(CC)CNC(=O)CC(C)O (stereo not drawn) [Drug C, N-(2-ethylhexyl)-β-hydroxybutyramide, reference compound] |  | 6.0 ×10^8 /mouse | 63.4 | 6.7 ×10^8 /mouse | 30.9 |  |  |  |  | 2205 | 1200 | 45.6 | 70.4 |  |
| C/C=C/C(=O)NCC(CC)CCCC (stereo not drawn) [Drug A, N-(2-ethylhexyl)-crotonamide] | 540 | 1.5 ×10^8 /mouse | 90.9 | 1.2 ×10^8 /mouse | 87.6 | high carcinostatic activity | soluble in organic solvents such as acetone | insoluble in water | effective in inhibiting DNA synthesis | 400 | 75 | 90.1 | 98.1 | more effective than N-(2-ethylhexyl)-β-hydroxybutyramide |
